Source: patent publication US9255263B2, “Antithrombotic compounds” (King's College London, priority 2009, dated 2016)
Several values for one entry are separate records, joined by “and”; a condition that tells them apart may be missing. Equal entries are not always repeated. Where no end group is shown, it is not given here. The star is where a group is joined. Myristoyl = CCCCCCCCCCCCCC(=O)*

Columns and labels:
[1] = Solubility observed during preparation; format: physicochemical
Description: N-myristoyl-GSSKSPSKKKKKKPGDC(S-2-thiopyridyl)-amide (containing SEQ ID NO. 4) (Smith R, Biochem. Soc. Transactions, 30: 1037-41, 2002) was prepared by solid phase synthesis. 0.1 ml of a solution of this conjugate (10 mg/ml) in DMSO was added to a solution of HLL-1 in PBS (4.8 mM, 0.2 ml). The mixture was held at 24° C. for 1 h and the concentration of 2-thiopyridine released calculated from the absorbance at 343 nm. […] After a further 30 min at 24° C., approximately 84% of the HLL peptide had reacted. The mixture was diluted to 2 ml with PBS (slight cloudiness was observed) and then concentrated using a Vivaspin 2 3 kDa cutoff PES membrane cartridge at 2500 rpm/4° C./90 min. […] Compound 3 has a theoretical molecular weight of 4403 daltons.

[2] = test system: Human CD34-derived progenitor cells; test: Human plasma recalcification (clotting) assay with prothrombotic cells; format: cell-based; details: for effect on cell-promoted fibrin clot formation: cells pre-incubated with agent and washed
Description: Human plasma preparation: Human blood was drawn from volunteers with heparin and human plasma prepared by centrifugation, before storage at −80° C.
Human plasma recalcification assay (based on Lin et al Transplantation, 86(5):702-9, 2008): Human CD34-derived progenitor cells were suspended in 50 μl Tris-buffered saline and mixed with 100 μl of normal human plasma (Sigma) in glass tubes (Corning, Corning, N.Y.). Ten (10) μl of 250 mM CaCl2 in Tris-buffered saline combined with 90 μl phospholipids (Diagnostic Reagents, Oxford, UK) were added, and the tube incubated at 37° C. in a water bath—the time for a fibrin clot to form was determined in triplicate, during which time the tubes were continuously agitated by tilting. In some assays, cells were incubated with 200 uL of Compound 1 (50 uM) for 30 min at 4° C. before washing twice and inclusion in the clotting assay.

[3] = test system: DA kidney graft in pre-sensitised Lewis recipients; format: in vivo, rat
Source text: Rat used were inbred male DA (RT1^a) and Lewis (RT1^i) at the age of 7-8 weeks and a weight of 150-200 g. The model of hyperimmune rejection was based on renal allografts from MHC Class I disparate donors and recipients with modifications to enable life-sustaining renal transplantation. Prior to transplantation, Lewis recipients were pre-sensitised by sequential grafting of three 2×2 cm full thickness skin DA grafts placed to the recipient's dorsal back. The first two skin transplants were received biweekly, followed by a four week period during which alloantibody reached its peak (data not shown), followed by the placement of a third skin graft.
Seven to ten days after the third skin graft, Lewis recipients received a DA kidney graft which had been perfused with different concentrations of Compound 1 (0.1-5 μM) and either flushed or not with Soltran solution (see above).
For the recipient preparation, a midline laparotomy was performed followed by removal of the left kidney. Microaneurysm clips (Johnson & Johnson, UK) were used to clamp the renal vein and artery. The donor kidney was transplanted orthotopically in an end to end anastomosis of the renal vein, artery and ureter using 10-0 sutures (BEAR MEDIC Corp, Japan). The donor and the recipient preparations were taking place simultaneously thus eliminating any cold ischemia. At the end of warm ischemia time, which was 30 minutes, the clips were removed and blood flow was restored to the transplanted kidney. Finally, a second native nephrectomy was performed making the transplanted kidney life-sustaining.
APT070 is a 23 kDa fragment of human complement receptor type 1(CR1) described in WO 98/0245. […] The inventors assessed the effects of these agents in the RATx model as a preliminary to combination studies with Compound 1. […]

human thrombin = human thrombin (Homo sapiens, UniProt P00734); test: GPBC assay: compound bound to guinea pig erythrocytes against exogenous human thrombin; format: cell-based; details: inhibitors 1 uM at cell-binding step, normalised for cell number
Description: Method and results. Guinea Pig Blood Cells (GPBCs Harlan, UK) were extensively washed with Gelatin Veronal Buffer (GVB, Sigma G6514). A fixed volume of cell suspension (100 ul containing about 10^8 cells) was then diluted 1:1 with GVB before Compounds 1 or 2 were added; control HLL was used at the same final concentration. Cells were incubated for 10 min at ambient temperature with gentle agitation. Three washes with GVB were performed (each with at least 500 ul GVB) before discarding the supernatant and leaving cell pellet as dry as possible. Cell pellet was then resuspended with GVB and hThrombin (between 0.01 and 0.1 units) was added: reaction volume was 460 ul. Cells were incubated for 3 min at 37° C. in a waterbath and after incubation, gently pelleted by centrifugation. Supernatant (˜400 ul) was recovered and spun again to remove any residual cells. Supernatant (380 ul) was transferred to a spectrophotometer and 70 µl of GVB and 50 ul thrombin substrate (1 mM in GVB) added. The sample adsorbance was recorded at 405 nm for 20 min at 25° C.
The cell-based thrombin inhibitory capacity of Compounds 1 and 2 were compared by normalising for cell number in the GPBC assay. […] Both values result from using inhibitors at 1 uM final concentration of the compounds at the cell-binding step.

RBCs = test: Internalisation by 2-colour FACS on RBCs; format: cell-based
Description: To gain insight into internal versus external exposure of the compounds, cells treated with these materials were incubated with an antibody raised against hirudin (anti Hir-mAb) which cross-reacts with the HLL-1 peptide sequence. Compounds located on the outside of cells were detected by FACS using this antibody in combination with a secondary phycoerythrin (PE)-conjugated antibody, at different time points. This system enabled the ratios of externally presented compound (red PE plus green FAM fluorescence) and internalised compound (green fluorescence only) to be estimated.

Conjugate of Anticoagulant Peptide HLL-1 with N-myristoyl-GSSKSPSKKKKKKPGDC(S-2-thiopyridyl)-amide (Myristoyl-GSSKSPSKKKKKKPGDC-NH2; not fully specified (residue 17); also: Cys S-2-thiopyridyl (activated form), conjugated to HLL-1 via Cys) [Compound 3]
DMSO needed to maintain solubility [1]: > 50 % v/v
solubility in aqueous buffers [1]: only limited solubility in aqueous buffers

CC[C@H](C)[C@H](NC(=O)[C@H](CCC(=O)O)NC(=O)[C@H](CCC(=O)O)NC(=O)[C@H](Cc1ccccc1)NC(=O)[C@H](CC(=O)O)NC(=O)CNC(=O)[C@H](CC(=O)O)NC(=O)CNC(=O)CNC(=O)CNC(=O)CNC(=O)[C@@H]1CCCN1C(=O)[C@H](CCCNC(=N)N)NC(=O)[C@@H]1CCCN1C(=O)[C@H](N)Cc1ccccc1)C(=O)N1CCC[C@H]1C(=O)N[C@@H](CCC(=O)O)C(=O)N[C@@H](CCC(=O)O)C(=O)N[C@@H](Cc1ccc(O)cc1)C(=O)N[C@@H](CC(C)C)C(=O)NCC(=O)NCC(=O)N[C@@H](CS)C(N)=O [HLL, reference compound]
effect on cell-promoted fibrin clot formation [2]: little inhibition of cell-mediated clotting

Conjugate of Anticoagulant Peptide HLL-1 with 1,2-distearoyl-sn-glycero-3-phosphoethanolamine-N-[2-thiopropionyl(polyethyleneglycol)-2000] (FPRPGGGGDGDFEEIPEEYLGGC; not fully specified) [Compound 1]
time for a fibrin clot to form, mean of three tubes ([2]; cells pre-incubated with Compound 1 (50 uM) 30 min at 4° C., washed twice, re-calcified human plasma): 172 s
time for a fibrin clot to form, single tube ([2]; cells pre-incubated with Compound 1 (50 uM) 30 min at 4° C., washed twice, re-calcified human plasma, listed as C.1): 169 s and 172 s and 175 s
effect on cell-promoted fibrin clot formation [2]: inhibited this effect
survival after transplantation ([3]; donor kidney perfused with 2 uM, flushed, controls did not survive longer than 48 h): 5 to 6 days
BUN deterioration ([3]; donor kidney perfused with 2 uM, flushed, versus control): deterioration was significantly slower
threshold concentration for bleeding ([3]; rat, in vivo): around 10 nM

Conjugate of Anticoagulant Peptide HLL-1 with N-(α,ε bis-myristoyl lysine) SSKSPSKKDDKKPGDC-acid ({Myristoyl-K(myristoyl)}-SSKSPSKKDDKKPGDC-OH; also: C-terminal Cys disulfide-linked to HLL-1 peptide) [Compound 2]
ratio Compound 2/Compound 1 for the specific cell inhibition capacity (human thrombin; 0.05 U of thrombin): 2.1
ratio Compound 2/Compound 1 for the specific cell inhibition capacity (human thrombin; 0.1 U of thrombin): 1.3
total labelled cells (RBCs): 98%
externally detected percentage (RBCs; after 1 h): around 65%
cells red and green (compound displayed on outer cell membrane) (RBCs; initially): 82%
